In publication PMC12475274, “Harnessing indole scaffolds to identify small-molecule IRE1α inhibitors modulating XBP1 mRNA splicing” (Nature Communications, 2025):
“And” between values parts separate entries of the source, which are not always exact repeats. Equal entries are not always repeated. Where two headings read alike, the source gives them in different places.

Key:
[1] = biological target: T1, dephosphorylated IRE1α (547–977) (Homo sapiens, UniProt O75460); test: FRET-based IRE1α RNase activity assay, dephosphorylated IRE1α; assay type: biochemical; details: for IRE1α IC50 / IC50: FRET assay
T1 construct: Human IRE1α kinase and RNase domain (residues 547–977) was subcloned into pLIB plasmid; His tag (with TEV cleavage site) (N, cleaved yes); made in house; host or cells: Sf9 insect cells, baculovirus (Bac-to-Bac)
Method: (§1) Human IRE1α kinase and RNase domain (residues 547–977) was subcloned into pLIB plasmid with a His tag and TEV cleavage site, and expressed using Bac-to-Bac expression system. The primers used are listed in Supplementary Table S3. The protein purification was performed following established procedures. Briefly, Sf9 cells were infected with baculovirus and incubated at 27 °C 110 rpm for 72 h. The cells were collected by centrifugation at 4000 × g for 15 min and the cell pellet was resuspended in lysis buffer (50 mM HEPES pH 7.5, 300 mM NaCl, 10% glycerol, 1 mM MgCl2, 1 mM TCEP, 5 mM imidazole), then supplemented with 1:10,000 benzonase (Sigma, E1014), 1 tablet/25 mL […]™ Protease Inhibitor Cocktail tablets (Sigma, S8830) and 1 mM PMSF before lysed by sonication at 4 °C. […] The protein elution was incubated with TEV protease to remove His tag at 4 °C overnight. Then the sample was diluted 1:6 in buffer (50 mM HEPES pH 7.5, 1 mM TCEP, 5% glycerol) and loaded onto a 5 mL pre-packaged Q HP anion exchange column (Cytiva, HiTrap Q HP) pre-equilibrated with QA buffer (50 mM HEPES pH 7.5, 50 mM NaCl, 1 mM TCEP, 5% glycerol). The unphosphorylated and phosphorylated protein was separated by eluting the protein with a very shallow gradient with 0-30% buffer QB (50 mM HEPES pH 7.5, 1 M NaCl, 1 mM TCEP, 5% glycerol) over 80 CV. Different peaks were collected separately and verified by LC-MS. The fully phosphorylated fraction was collected and further purified by size exclusion chromatography (Cytiva, HiLoad 16/600 Superdex 200 pg,) with SEC buffer (25 mM HEPES pH 7.5, 250 mM NaCl, 1 mM TCEP, 10% glycerol) and fractioned as monomeric peak. The rest protein fraction from the Q HP anion exchange column was incubated with Lambda protein phosphatase (New England BioLabs, P0753S) overnight at 4 °C, the dephosphorylation was confirmed by LC-MS. The unphosphorylated protein was further purified by size exclusion chromatography with the SEC buffer described above. The purified phosphorylated (p-IRE1α) and dephosphorylated (IRE1α) protein aliquots were stored at −80 °C for future usage.
The dual-labeled RNA substrate with a FAM at 5’ and the BHQ-1 at 3’ containing the XBP1 sequence (5′FAM-[…]-3′BHQ1) was purchased from Integrated DNA Technologies (IDT). The FRET-based IRE1α RNase activity assay was carried out in reaction buffer containing 20 mM HEPES pH 7.5, 50 mM KOAc, 1 mM MgOAc2, 1 mM DTT, 0.05% v/v TritonX-100, at a total reaction volume of 20 μL in a 384-well black plate (4514, Corning). For unphosphorylated IRE1α (IRE1α), a final concentration of 40 nM IRE1α protein and 100 nM RNA substrate was used. For phosphorylated IRE1 (p-IRE1α), a final concentration of 4 nM p-IRE1α protein and 200 nM RNA substrate was used. The indicated compound and IRE1α protein were incubated for 30 min at room temperature before the substrate was added to the reaction. The plate was then kinetically read over one hour at room temperature using a TECAN Spark plate reader. The measurement was carried out using the fluorescence top reading mode at the excitation wavelength of 485 nm and the emission wavelength of 535 nm with a 10 nm excitation and emission bandwidth. The linear part of the reaction curve was adopted and fitted with sample linear regression to obtain the slope, and the slope was adopted to reflect the reaction rate. The inhibition % was calculated by using the equation: inhibition% = 100 × (slope of DMSO control – slope of the sample)/(slope of DMSO control – slope of blank control), DMSO control: DMSO with protein and RNA substrate; Blank control: DMSO with RNA substrate. The IC50 values were calculated using the concentration-response model in GraphPad Prism 9. […]

[2] = biological target: T2, phosphorylated IRE1α (p-IRE1α) (Homo sapiens, UniProt O75460); test: FRET-based IRE1α RNase activity assay, phosphorylated IRE1α; assay type: biochemical; details: FRET assay
T2 construct: Human IRE1α kinase and RNase domain (residues 547–977) was subcloned into pLIB plasmid; His tag (with TEV cleavage site) (N, cleaved yes); made in house; host or cells: Sf9 insect cells, baculovirus (Bac-to-Bac)
Method: as §1
The dual-labeled RNA substrate with a FAM at 5’ and the BHQ-1 at 3’ containing the XBP1 sequence (5′FAM-[…]-3′BHQ1) was purchased from Integrated DNA Technologies (IDT). The FRET-based IRE1α RNase activity assay was carried out in reaction buffer containing 20 mM HEPES pH 7.5, 50 mM KOAc, 1 mM MgOAc2, 1 mM DTT, 0.05% v/v TritonX-100, at a total reaction volume of 20 μL in a 384-well black plate (4514, Corning). For unphosphorylated IRE1α (IRE1α), a final concentration of 40 nM IRE1α protein and 100 nM RNA substrate was used. For phosphorylated IRE1 (p-IRE1α), a final concentration of 4 nM p-IRE1α protein and 200 nM RNA substrate was used. The indicated compound and IRE1α protein were incubated for 30 min at room temperature before the substrate was added to the reaction. The plate was then kinetically read over one hour at room temperature using a TECAN Spark plate reader. The measurement was carried out using the fluorescence top reading mode at the excitation wavelength of 485 nm and the emission wavelength of 535 nm with a 10 nm excitation and emission bandwidth. The linear part of the reaction curve was adopted and fitted with sample linear regression to obtain the slope, and the slope was adopted to reflect the reaction rate. The inhibition % was calculated by using the equation: inhibition% = 100 × (slope of DMSO control – slope of the sample)/(slope of DMSO control – slope of blank control), DMSO control: DMSO with protein and RNA substrate; Blank control: DMSO with RNA substrate. The IC50 values were calculated using the concentration-response model in GraphPad Prism 9.

[3] = RNase activity, mean (± SEM), read-out: IRE1α IC50
[4] = RNase activity, mean (± SEM), read-out: p-IRE1α IC50
[5] = source data, unit from Fig. 3 / sheet Fig. 2b, read-out: IRE1a IC50, individual replicates (n1-n4)
[6] = source data, unit from Fig. 3, read-out: p-IRE1a IC50, individual replicates (n1-n4)

T1 sequence (O75460 547-977): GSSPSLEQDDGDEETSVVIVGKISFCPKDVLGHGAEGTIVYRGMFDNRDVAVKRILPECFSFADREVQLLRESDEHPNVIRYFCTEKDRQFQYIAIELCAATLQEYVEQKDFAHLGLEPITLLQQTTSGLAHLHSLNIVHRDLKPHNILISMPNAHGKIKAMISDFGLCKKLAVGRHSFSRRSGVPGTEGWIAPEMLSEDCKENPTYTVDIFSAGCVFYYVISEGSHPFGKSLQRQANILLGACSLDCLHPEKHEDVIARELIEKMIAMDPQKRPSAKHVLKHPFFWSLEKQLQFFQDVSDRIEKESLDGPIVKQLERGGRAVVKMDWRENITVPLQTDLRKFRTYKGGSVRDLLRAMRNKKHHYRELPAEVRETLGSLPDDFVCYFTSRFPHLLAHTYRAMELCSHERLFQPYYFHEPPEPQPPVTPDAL
T2 sequence (O75460 547-977): as above

Row | Structure (SMILES) | IRE1α IC50 ([1]; RNase activity, mean (± SEM)) | IC50 [1, 3] | p-IRE1α IC50 ([2]; RNase activity, mean (± SEM)) | IC50 [2, 4] | IC50 [1, 5] | IC50 [2, 6] | IRE1α inhibition% ([1]; FRET assay at 50 μM, mean (± SEM))
1 | COc1ccc2[nH]c(C)c(CCC(=O)O)c2c1 [IA72] | IC₅₀ not reached | > 20000 nM | IC₅₀ not reached | > 20000 nM | – | – | –
2 | COc1ccc2c(c1)c(CCC(=O)O)c(C)n2C(=O)c1ccc(-c2ccccc2)cc1 [IA75] | – | 860 nM | – | 1150 nM | 1180 nM and 924 nM and 476 nM | 1470 nM and 1150 nM and 817 nM | –
3 | COc1ccc2c(c1)c(CCC(=O)O)c(C)n2C(=O)N(C)C [IA76] | IC₅₀ not reached | > 20000 nM | IC₅₀ not reached | > 20000 nM | – | – | –
4 | COc1ccc2c(c1)c(CCC(=O)O)c(C)n2C(=O)N1CCOCC1 [IA77] | IC₅₀ not reached | > 20000 nM | IC₅₀ not reached | > 20000 nM | – | – | –
5 | COc1ccc2c(c1)c(CCC(=O)O)c(C)n2C(=O)C1CCOCC1 [IA81] | – | 2040 nM | – | 5610 nM and 5600 nM | 1900 nM and 2230 nM and 1980 nM | 5640 nM and 7330 nM and 3850 nM | –
6 | COc1ccc2c(c1)c(CCC(=O)O)c(C)n2C(=O)C1CC1 [IA84] | – | 830 nM | – | 1740 nM | 703 nM and 1250 nM and 531 nM | 1510 nM and 2540 nM and 1170 nM | –
7 | COc1ccc2c(c1)c(CCC(=O)O)c(C)n2C(=O)N1CCCCC1 [IA89] | – | 69600 nM | IC₅₀ not reached | > 20000 nM | 33400 nM and 89300 nM and 86000 nM | – | –
8 | COc1ccc2c(c1)c(CCC(=O)O)c(C)n2C(=O)C12CCC(C)(C(=O)O1)C2(C)C (centres unmarked) [IA92] | IC₅₀ not reached | > 20000 nM | IC₅₀ not reached | > 20000 nM | – | – | –
9 | COc1ccc2c(c1)c(CCC(=O)O)c(C)n2C(=O)c1ccncc1 [IA93] | – | 180 nM | – | 340 nM | 141 nM and 211 nM and 201 nM | 198 nM and 428 nM and 403 nM | –
10 | COc1ccc(C(=O)n2c(C)c(CCC(=O)O)c3cc(OC)ccc32)cc1 [IA96] | – | 170 nM | – | 200 nM | 55.7 nM and 53.7 nM and 388 nM | 83 nM and 113 nM and 398 nM | –
11 | Cc1c(CCC(=O)O)c2ccccc2n1C(=O)c1ccccc1 [IA104] | – | 340 nM | – | 1050 nM | 173 nM and 171 nM and 675 nM | 446 nM and 627 nM and 2070 nM | –
12 | Cc1c(CCC(=O)O)c2cc(C(C)C)ccc2n1C(=O)c1ccccc1 [IA110] | – | 240 nM | – | 200 nM | 230 nM and 198 nM and 292 nM | 205 nM (2×) and 190 nM | –
13 | Cc1c(CCC(=O)O)c2cc(F)ccc2n1C(=O)c1ccccc1 [IA137] | – | 420 nM | – | 720 nM | 180 nM and 670 nM and 418 nM | 252 nM and 1120 nM and 788 nM | –
14 | O=C(O)Cc1c[nH]c2ccccc12 [auxin, reference compound] | – | – | – | – | – | – | ≤ 50%
